Each structure is given as a SMILES string.

One assay has as its system Ishikawa cells. Put plainly: Ishikawa Cell Alkaline Phosphatase Assay. In kind it is cell-based. Particulars: Homo sapiens, 48 h, read-out: % Activation. As to the method: Ishikawa Cell Alkaline Phosphatase Assay
Cell Maintenance and Treatment
Ishikawa cells were maintained in DMEM/F12 (50%:50%) containing phenol red+10% fetal bovine serum and the medium was supplemented with 2 mM Glutamax, 1% Pen/Strap and 1 mM sodium pyruvate. Five days prior to the beginning of each experiment (treatment of cells) the medium was changed to phenol red-free DMEM/F12+10% dextran coated charcoal stripped serum. On the day before treatment, cells were harvested using 0.5% trypsin/EDTA and plated at a density of 5×10^4 cells/well in 96-well tissue culture plates. […] Cells were treated for 48 h prior to assay. […] Sample population for at each dose was n=8.
Alkaline Phosnhatase Assay
At the end of 48 h the media is aspirated and cells are washed three times with phosphate buffered saline (PBS). 50 μL of lysis buffer (0.1M Tris-HCl, pH 9.8, 0.2% Triton X-100) is added to each well. Plates are placed at -80° C. for a minimum of 15 minutes. Plates are thawed at 37° C. followed by the addition of 150 μL of 0.1M Tris-HCl, pH 9.8, containing 4 mM para-nitrophenylphosphate (pNPP) to each well (final concentration, 3 mM pNPP).
Absorbance and slope calculations were made using the KineticCalc Application program (Bio-Tek Instruments, Inc., Winooski, Vt.). Results are expressed as the mean±S.D. of the rate of enzyme reaction (slope) averaged over the linear portion of the kinetic reaction curve (optical density readings every 5 minutes for 30 minutes absorbance reading).
The four listed in the following were used as as reference standards:
A description of these methods is described by Holinka, C. F., Hata, H., Kuramoto, H. and Gurpide, E. (1986) Effects of steroid hormones and antisteroids on alkaline phosphatase activity in human endometrial cancer cells (Ishikawa Line). Cancer Research, 46:2771-2774, and by Littlefield, B. A., Gurpide, E., Markiewicz, L., McKinley, B. and Hochberg, R. B. (1990) A simple and sensitive microtiter plate estrogen bioassay based on stimulation alkaline phosphatase in Ishikawa cells; Estrogen action of D5 adrenal steroids. Endocrinology, 6:2757-2762.

Assay [1] has as its target T1, estrogen receptor (Homo sapiens, UniProt P03372).
T1 sequence (P03372 1-595): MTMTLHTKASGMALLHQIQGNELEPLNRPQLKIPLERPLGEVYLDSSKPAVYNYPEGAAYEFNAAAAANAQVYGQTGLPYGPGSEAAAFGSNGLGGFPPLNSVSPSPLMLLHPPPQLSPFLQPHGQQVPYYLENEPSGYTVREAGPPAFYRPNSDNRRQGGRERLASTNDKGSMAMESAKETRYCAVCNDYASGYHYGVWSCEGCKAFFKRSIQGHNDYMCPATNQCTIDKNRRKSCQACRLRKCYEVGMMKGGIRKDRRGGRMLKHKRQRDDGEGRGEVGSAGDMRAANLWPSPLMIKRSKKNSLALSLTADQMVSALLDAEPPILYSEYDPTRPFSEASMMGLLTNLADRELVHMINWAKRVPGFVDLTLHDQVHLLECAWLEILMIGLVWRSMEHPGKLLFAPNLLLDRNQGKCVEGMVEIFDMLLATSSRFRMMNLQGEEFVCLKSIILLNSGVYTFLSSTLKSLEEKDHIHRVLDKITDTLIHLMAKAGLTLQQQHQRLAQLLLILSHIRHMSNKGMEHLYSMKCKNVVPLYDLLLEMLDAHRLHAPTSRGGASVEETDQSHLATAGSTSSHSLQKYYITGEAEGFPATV
As to the kind of experiment: In vitro estrogen receptor binding assay (competition with [3H]-17β-estradiol). The arrangement: made in house; host or cells: CHO cells overexpressing the receptor (100,000 g cytosol).

The target of assay [2] is T1, estrogen receptor. Put plainly: 2X VIT ERE Transfection Assay (luciferase). Particulars: 24 h; read-out: % Activation. In kind it is cell-based. The arrangement: expressed in transfected cells; host or cells: CHO (Chinese Hamster Ovary) cells, stably transfected.
For another assay, the system named is uterine growth. Particulars: ovariectomized rat, compared with Tamoxifen; cited from earlier work.
The test system of assay [3] is bone. The following applies: rat, in vivo; cited from earlier work.
In assay [4] the test system is bone. The following applies: in humans; cited from earlier work.
For another assay, the system named is uterus. Particulars: in vivo; cited from earlier work.

Consider `Cc1c(-c2ccc(O)cc2)n(Cc2ccc(C#CCN(C)C)cc2)c2ccc(O)cc12` [Example 4, 2-(4-Hydroxy-phenyl)-3-methyl-1-[4-(3-N,N-dimethyl-1-yl-prop-1-ynyl)-benzyl]-1H-indol-5-ol], for which, in the assay on Ishikawa cells, the Emax came to 34%. Besides, the “RBA (Estrogen Receptor Affinity)” value at estrogen receptor [1] is given as 53. The Emax at 1 µM at estrogen receptor [2] worked out at 34%.

For the compound `Cc1c(-c2ccc(O)cc2)n(Cc2ccc(C#CCN3CCCCC3)cc2)c2ccc(O)cc12` [Example 5, 2-(4-Hydroxy-phenyl)-3-methyl-1-[4-(3-piperidin-1-yl-prop-1-ynyl)-benzyl]-1H-indol-5-ol], the Emax in the assay with Ishikawa cells is 27%. Moreover, the “RBA (Estrogen Receptor Affinity)” value on estrogen receptor [1] was determined as 23. Also, the Emax at 1 µM at estrogen receptor [2] is 17%.

In the case of `O=C(c1ccc(OCCN2CCCCC2)cc1)c1c(-c2ccc(O)cc2)sc2cc(O)ccc12` [Raloxifene], in the assay on Ishikawa cells, the Emax came out at 5%. For the same compound, the “stimulation of uterine growth” value with uterine growth is recorded as “to a lesser extent than Tamoxifen”. Further, the “ability to spare bone” value in the assay with bone [3] is reported as “maintaining the ability to spare bone”.

Consider `CC/C(=C(\c1ccccc1)c1ccc(OCCN(C)C)cc1)c1ccccc1` [Tamoxifen], for which the Emax in the assay on Ishikawa cells amounted to 0%. In addition, the “effect on the bone” value in the assay on bone [4] is “estrogen agonist-like effect on the bone”. For the same compound, the “agonism in the uterus” value in the assay with uterus is reported as “partial agonist in the uterus”.

The values above are taken from patent publication US5780497A, “2-phenyl-1-[4-(amino-1-yl-alk-1-ynyl)-benzyl]-1H-indol-5-ols as estrogenic agents” (American Home Products Corporation, priority 1997, dated 1998).
